Series [1] in a line: Stability of the solid placed open in the air under illumination, heating and humidity, HPLC analysis. The series is classed as physicochemical. The conditions noted are these: for HPLC analysis result, 60° C.: heating 60° C.; for HPLC analysis result, RH 90%: humidity RH 90%; for HPLC analysis result, Light: illumination 4500 Lux. On the procedure: The form I crystal of SHR1258 dimaleate prepared in Example 1 and the amorphous form of SHR1258 dimaleate prepared in Example 2 were placed open in the air to test the stability in various conditions including illumination (4500 Lux), heating (60° C.), and humidity (RH 90%).

A short description of series [2]: Crystal form stability after grinding, heating and pressing, evaluated by X-ray diffraction and DSC. Type of series: physicochemical. The following applies: for Stability under grinding, pressure and heating: grinded, heated and pressed, X-ray diffraction and DSC. The source says:
The form I crystal of SHR1258 dimaleate prepared in Example 1 was grinded, heated and pressed, then evaluated by X-ray diffraction and DSC patterns.

“Also recorded” adds a separate entry of the source.

Turning to `CCOc1cc2ncc(C#N)c(Nc3ccc(OCc4ccccn4)c(Cl)c3)c2cc1NC(=O)/C=C/[C@H]1CCCN1C` [Amorphous Form], in series [1] (day 0), the “HPLC analysis result, 60° C.” value worked out at 98.41%; the “HPLC analysis result, RH 90%” value was found to be 98.41%; the “HPLC analysis result, Light” value is on record as 98.41%. Besides, in series [1] (day 5), the “HPLC analysis result, 60° C.” value came to 95.24%; the “HPLC analysis result, RH 90%” value is 96.95%; the “HPLC analysis result, Light” value was 96.96%. Also, in series [1] (day 10), the “HPLC analysis result, 60° C.” value worked out at 93.71%; the “HPLC analysis result, RH 90%” value turned out to be 96.31%; the “HPLC analysis result, Light” value came to 96.91%. Besides, the “Stability under illumination, form I crystal compared with amorphous form” value in series [1] was “similar”.
For the compound `CCOc1cc2ncc(C#N)c(Nc3ccc(OCc4ccccn4)c(Cl)c3)c2cc1NC(=O)/C=C/[C@H]1CCCN1C` [Form I Crystal, (R, E)-N-(4-(3-chloro-4-(pyridin-2-yl-methoxy)phenylamino)-3-cyano-7-ethoxyquinolin-6-yl)-3-(1-methylpyrrolidino-2-yl)acrylamide dimaleate], the “HPLC analysis result, 60° C.” value in series [1] (day 0) stood at 99.65%; in series [1] (day 5), 98.13%; in series [1] (day 10) it was 96.86%. The “Stability under high temperature and high moisture, compared with amorphous form” value in series [1] (high temperature and high humidity, listed as form I crystal of SHR1258 dimaleate) is listed as “significantly better than the amorphous form; also recorded: more stable”. For the same compound, the “HPLC analysis result, RH 90%” value worked out at 99.65% in series [1] (day 0), 98.35% in series [1] (day 5) and 98.35% in series [1] (day 10). Also, the “Stability under illumination, form I crystal compared with amorphous form” value in series [1] was “similar”. Moreover, the figures for the “HPLC analysis result, Light” value in series [1] (day 0), in series [1] (day 5) and in series [1] (day 10) were 99.65%, 98.20% and 97.91%, respectively. Also, the “Stability under grinding, pressure and heating” value is recorded as “good stability” in series [2] and “stable” in series [2] (listed as form I crystal of SHR1258 dimaleate). Further, the “Crystal (form after process)” value in series [2] (grinding for 10 min under nitrogen atmosphere), in series [2] (heating at 80° C. for 3 hours) and in series [2] (pressing into pieces) was “Form I” each time.

The values above are taken from patent publication US9309226B2, “Crystalline form I of tyrosine kinase inhibitor dimaleate and preparation methods thereof” (Jiangsu Hengrui Medicine Co., Ltd., priority 2012, dated 2016).
